Measurements taken from ChEMBL document CHEMBL1201862, “PubChem BioAssay data set” (2004).
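How tested: cells in 96-well plates exposed to compound for 48 hours at five concentrations. GI50: concentration for 50% inhibition of growth.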 The source made the active and inactive calls. Cut-off read from the data, not from the text of the source: active = GI50 up to about 1.1 µM and inactive = higher.

Experiments:
Experiment in all cases: DTP human tumour cell line panel, 48 h
[1] = system: HT-29
[2] = system: EKVX
[3] = system: KM12
[4] = system: SF-268
[5] = system: OVCAR-5
[6] = system: K562
[7] = system: MDA-MB-231
[8] = system: HCT-116
[9] = system: UO-31
[10] = system: SK-MEL-5
[11] = system: SK-MEL-28
[12] = system: HCC 2998
[13] = system: NCI-H460
[14] = system: U-251
[15] = system: SNB-19
[16] = system: HOP-92
[17] = system: IGROV-1
[18] = system: A549
[19] = system: NCI-H23

Measured: GI50

C=CCn1c2c(c3ccccc3c1=O)C(=O)c1ccccc1-2
inactive: [1] > 100 µM | [2] > 100 µM | [3] > 72.9 µM | [4] > 68.1 µM | [5] > 100 µM | [6] > 23 µM | [7] > 85.3 µM | [8] > 26.2 µM | [9] > 100 µM | [10] 43.8 µM | [11] > 100 µM | [12] > 100 µM | [13] 6.28 µM | [14] 30.8 µM | [15] 73.8 µM | [16] > 100 µM | [17] > 100 µM | [18] > 100 µM | [19] > 100 µM

Cn1c(=O)oc2nc(-c3ccccc3)cc(C(F)(F)F)c21
inactive: [1] 33.2 µM | [2] > 100 µM | [3] 9.93 µM | [4] > 100 µM | [5] > 100 µM | [7] > 100 µM | [8] 9.33 µM | [9] > 100 µM | [10] 50.7 µM | [11] > 100 µM | [12] > 100 µM | [13] > 100 µM | [14] 95.3 µM | [15] > 100 µM | [16] 35.7 µM | [17] > 100 µM | [18] > 100 µM | [19] > 100 µM

CCOC(=O)C1C(C)C2(C#N)C(=N)OC1(C)C2(C#N)C#N (configuration not stated)
inactive: [1] 58.9 µM | [2] > 100 µM | [3] > 100 µM | [4] 57.9 µM | [5] > 100 µM | [6] 39.4 µM | [7] > 100 µM | [8] 76.7 µM | [9] 76.9 µM | [10] 41.4 µM | [11] 28.1 µM | [12] > 10 µM | [14] 69.2 µM | [15] 79.3 µM | [16] 30.1 µM | [17] 39.2 µM | [18] > 100 µM | [19] 60 µM

COc1cc(-c2cc(OC)c(OC)c3ccc(Br)cc23)c2cc(Br)ccc2c1OC
inactive: [1] 19.2 µM | [2] 85.9 µM | [4] 20.2 µM | [5] 15.9 µM | [6] 22.4 µM | [7] 22.4 µM | [8] 12.4 µM | [9] 41.8 µM | [10] 32.3 µM | [11] 20.1 µM | [12] 36.1 µM | [13] 41.7 µM | [14] 20.5 µM | [15] 39.5 µM | [16] 18.9 µM | [17] 23.9 µM | [18] 20.3 µM | [19] 22.4 µM

CC(CO)C1C[C@H](O)[C@@]2(C)CC(=O)C=C(CO)[C@@H]2C1 (some centres not stated)
inactive: [1] > 100 µM | [2] > 100 µM | [3] > 100 µM | [4] > 100 µM | [5] > 100 µM | [7] > 100 µM | [8] > 100 µM | [9] > 100 µM | [10] > 100 µM | [11] > 100 µM | [12] > 100 µM | [13] > 100 µM | [14] > 100 µM | [15] > 100 µM | [16] > 100 µM | [17] > 100 µM | [18] > 100 µM | [19] > 100 µM

COC(=O)c1cc(C)ccc1/C=C1\Cc2c(C)cc(C)cc2C1=O
inactive: [1] 10.8 µM | [2] 41.5 µM | [3] > 44 µM | [4] 15.3 µM | [5] > 43.9 µM | [6] > 100 µM | [7] > 36.6 µM | [8] 8.41 µM | [9] 12.3 µM | [10] > 100 µM | [11] 99.1 µM | [12] > 100 µM | [13] > 85.7 µM | [14] 14 µM | [15] 15.7 µM | [16] 4.56 µM | [17] 65.3 µM | [18] 99.3 µM | [19] 14.5 µM

CC(=O)OCCCCn1nncc1Cn1ccc(=O)n(Cc2cnnn2CCCCOC(C)=O)c1=O
inactive: [2] > 100 µM | [3] > 100 µM | [4] > 100 µM | [5] > 100 µM | [7] > 100 µM | [8] > 100 µM | [9] > 100 µM | [10] > 100 µM | [11] > 100 µM | [12] > 100 µM | [14] > 100 µM | [15] > 100 µM | [16] > 100 µM | [17] > 100 µM | [18] > 100 µM | [19] > 100 µM

CN(C)CCCOCCn1c2c(c3ccccc31)CCCC2
inactive: [1] 15 µM | [2] 21.9 µM | [3] 21.2 µM | [4] 26.9 µM | [5] 16.9 µM | [6] 12.9 µM | [7] 13 µM | [8] 15.3 µM | [9] 17.1 µM | [10] 12.7 µM | [11] 16.6 µM | [12] 14.4 µM | [13] 15 µM | [14] 17.9 µM | [16] 13.2 µM | [17] 15.8 µM | [18] 17 µM | [19] 15.1 µM

CN(/N=C\c1ccc2ccccc2c1)C1=NCCCN1
inactive: [1] 12 µM | [2] 17.3 µM | [3] 15 µM | [4] 13.8 µM | [5] 28.1 µM | [6] 11.7 µM | [7] 15.6 µM | [8] 13.8 µM | [9] 9.93 µM | [10] 11.9 µM | [11] 14.6 µM | [12] 11.7 µM | [13] 4.7 µM | [14] 20 µM | [16] 2.11 µM | [17] 4.56 µM | [18] 8.18 µM | [19] 25.9 µM

O=C(O)CN1CCN(CC(=O)N2CCN(C(=O)OCc3ccccc3)CC2)CCN(CC(=O)O)CCN(CC(=O)N2CCN(C(=O)OCc3ccccc3)CC2)CC1
inactive: [1] > 100 µM | [2] > 100 µM | [3] > 100 µM | [5] > 100 µM | [6] > 100 µM | [7] > 100 µM | [8] > 100 µM | [9] > 100 µM | [10] > 100 µM | [11] > 100 µM | [12] > 100 µM | [13] > 100 µM | [14] > 100 µM | [15] > 100 µM | [16] > 100 µM | [17] > 100 µM | [18] > 100 µM

O=C1CSC(c2cccc(Oc3ccccc3)c2)N1c1cccc(Cl)c1Cl (configuration not stated)
inactive: [1] 22.4 µM | [2] 25.2 µM | [3] 26.7 µM | [4] 23.6 µM | [5] 33.5 µM | [6] 20.4 µM | [7] 22.3 µM | [8] 21.2 µM | [9] 36.9 µM | [10] 18.4 µM | [11] 50 µM | [12] 12.3 µM | [13] 26 µM | [14] 18.2 µM | [15] 42.8 µM | [16] 12.3 µM | [18] > 100 µM | [19] 27.5 µM

O=c1[nH]nc(Cc2ccccc2)n1/N=C/c1ccc([N+](=O)[O-])o1
inactive: [1] 1.68 µM | [2] 3.77 µM | [3] 2.15 µM | [4] 2.59 µM | [5] 6.68 µM | [6] 4.09 µM | [7] 3.38 µM | [8] 2.06 µM | [9] 4.47 µM | [10] 1.83 µM | [11] 2.2 µM | [12] 3.99 µM | [13] 3.46 µM | [14] 2.87 µM | [15] 4.83 µM | [16] 3.03 µM | [17] 2.67 µM | [18] 4.1 µM | [19] 3.57 µM

NC(Cc1ccc(OCc2ccccc2)cn1)C(=O)OCc1ccccc1 (configuration not stated)
inactive: [1] > 100 µM | [2] > 100 µM | [3] > 100 µM | [5] > 100 µM | [6] > 100 µM | [7] > 100 µM | [8] > 100 µM | [9] > 100 µM | [10] > 100 µM | [11] > 100 µM | [12] 52.4 µM | [13] > 100 µM | [14] > 100 µM | [15] > 100 µM | [16] > 100 µM | [17] > 100 µM | [18] > 100 µM | [19] > 100 µM

C=CCCCC1CCCNC1=O (configuration not stated)
inactive: [1] > 100 µM | [2] > 100 µM | [3] > 100 µM | [4] > 100 µM | [5] > 100 µM | [6] > 100 µM | [7] > 100 µM | [8] > 100 µM | [9] > 100 µM | [10] > 100 µM | [11] > 100 µM | [12] > 100 µM | [13] 42.6 µM | [14] > 100 µM | [15] > 100 µM | [16] > 100 µM | [17] > 100 µM | [18] > 100 µM | [19] > 100 µM

COc1ccc(/C=C/C(=O)c2ccc(OC(=O)/C=C/c3ccccc3)cc2)cc1
inactive: [1] 18.5 µM | [2] 29 µM | [3] 8.97 µM | [4] 25 µM | [5] > 85.7 µM | [6] 5.93 µM | [7] 27.5 µM | [8] 18.7 µM | [9] 22.7 µM | [10] 26 µM | [11] 43.6 µM | [12] 16.2 µM | [13] 19.4 µM | [14] 19 µM | [15] 21.8 µM | [16] 44.5 µM | [17] 18.9 µM | [18] 29.5 µM | [19] 21 µM
